Key:
[1] = Metabolomics demographic study of plasma from 270 healthy volunteers of various ages (Table 11); assay type: in vivo, human; settings: normal adults
[2] = Caffeine and paraxanthine in plasma of ALS patients vs peripheral neuropathy or myopathy patients (Examples 6, 7; Tables 12, 13); assay type: in vivo, human
Description: All research participants provided informed consent. A board-certified neurologist reviewed and confirmed diagnosis for all participants. Data on gender, age, weight, and medications was collected. For participants with ALS, date and site of symptom onset, date of diagnosis, and family history of ALS was recorded.

[3] = Caffeine and caffeine metabolites in plasma of ALS patients vs healthy control subjects (Examples 4, 5; Tables 9, 10)
Description: Metabolomic analysis of two independent ALS studies was carried out to assess the changes of metabolite levels in plasma from ALS patients relative to healthy control subjects. Thirty-one healthy control volunteers and 31 participants with ALS enrolled in Study 1. Study 2 was comprised of ninety-nine participants with ALS and 94 healthy volunteers. All research participants provided informed consent. A board-certified neurologist reviewed and confirmed diagnosis for all participants. Data on gender, age, weight, and medications was collected. For participants with ALS, date and site of symptom onset, date of diagnosis, and family history of ALS was recorded. Healthy control subjects were defined by the absence of a known neurological disorder.
A measure of caffeine clearance rate is reflected in the ratio of caffeine metabolites to caffeine.

Row | SMILES | Paraxanthine/Caffeine (P/C) Ratio ([1]; age 25-35) | Paraxanthine/Caffeine (P/C) Ratio ([1]; age 36-50) | Paraxanthine/Caffeine (P/C) Ratio ([1]; age 51-65) | Paraxanthine/Caffeine Ratio ([2]; ALS) | Paraxanthine/Caffeine Ratio ([2]; Myopathy) | Paraxanthine/Caffeine Ratio ([2]; PN) | Theophylline/Caffeine (T/C) Ratio ([3]; ALS subjects) | Theophylline/Caffeine (T/C) Ratio ([3]; Control subjects)
1 | Cn1c(=O)[nH]c2ncn(C)c2c1=O [Paraxanthine, 1-7-dimethylxanthine] | 1.1467 | 1.0358 | 0.7105 | 0.7389 | 0.4900 | 0.0294 | – | –
2 | Cn1c(=O)c2[nH]cnc2n(C)c1=O [Theophylline] | – | – | – | – | – | – | 1.3684 | 0.8857
